Assay results reported in PMC3944524, “Antimicrobial Activity of the Marine Alkaloids, Clathrodin and Oroidin, and Their Synthetic Analogues” (Marine Drugs, 2014).
Values after ≈ are worked out from the molar mass of the structure shown.

What was measured:
[1] = test system: Candida albicans (ATCC 90028); experiment: Broth microdilution antifungal assay, Candida albicans; assay type: cell-based
Procedure: Clinical control strains of Enterococcus faecalis (Gram-positive, ATCC 29212), Staphylococcus aureus (Gram-positive, ATCC 25923), Escherichia coli (Gram-negative, ATCC 25922) and a fungal strain, Candida albicans (ATCC 90028), were obtained from Microbiologics Inc. (St. Cloud, MN, USA) and used for the antimicrobial screening. Bacterial strains were grown on Mueller Hinton II agar (MHA, Becton Dickinson, Franklin Lakes, NJ, USA) slants and Mueller Hinton II broth (MHB, Becton Dickinson, Franklin Lakes, NJ, USA) and the Candida strain on Sabouraud dextrose agar (SDA, Becton Dickinson, Franklin Lakes, NJ, USA) plates. Media were prepared in MilliQ water, according to the manufacturer’s instructions, and autoclaved at 121 °C for 15 min. Prior to the assay, bacterial suspensions were prepared in MHB from fresh slant cultures and incubated at 37 °C for 16–20 h at 100 rpm. The Candida strain was grown on SDA plates at 28 °C for 18–24 h and suspended into sterile 0.9% saline for the assay.
Antimicrobial assays were performed by the broth microdilution method following the guidelines of the Clinical and Laboratory Standards Institute (CLSI) and European Committee on Antimicrobial Susceptibility Testing (EUCAST). Bacterial suspensions were prepared as described above and diluted with MHB to obtain a final inoculum of 5 × 10^5 colony-forming units (CFU)/milliliters in the assay (determined on the basis of absorbance values at 620 nm previously calibrated against plate counts). The Candida suspension was prepared in sterile 0.9% saline solution, and the suspension was diluted in RPMI-1640 media (with L-glutamine, without NaHCO3 and supplemented with 2% glucose and 0.165 M MOPS, buffered to pH 7; Lonza, Basel, Switzerland) to yield a final inoculum of 2.5 × 10^3 CFU/mL in the assay. Assays were carried out in clear 96-well microtiter plates and initiated by dispensing an equal volume of microbial suspension and sample solution diluted into the assay medium. The plates were incubated for 24 h at 37 °C (for Candida, the incubation was at 28 °C for 48 h) with agitation. Absorbance was measured at 620 nm with a plate reader at 0, 4 and 24 h with the bacteria and at 0, 24 and 48 h with Candida. The antimicrobial activity of the samples was calculated from the absorbance values by comparing to untreated controls and expressed as the percentage inhibition of growth. Reference antibiotics were used as positive controls on every assay plate (see Figure 2 for details). […] MIC50 values were determined from the dose-response results by sigmoidal curve fitting with Origin software (OriginLab, Corp., Wellesley Hills, MA, USA).

[2] = test system: Enterococcus faecalis (ATCC 29212); experiment: Broth microdilution antimicrobial assay, Enterococcus faecalis; assay type: cell-based; conditions: for inhibition at 50 µM / inhibition of growth, primary screen: n = 3, hit threshold >80%, 50 µM; for inhibition at 50 µM: read-out: inhibition of growth, primary screen
Procedure: (§1) Clinical control strains of Enterococcus faecalis (Gram-positive, ATCC 29212), Staphylococcus aureus (Gram-positive, ATCC 25923), Escherichia coli (Gram-negative, ATCC 25922) and a fungal strain, Candida albicans (ATCC 90028), were obtained from Microbiologics Inc. (St. Cloud, MN, USA) and used for the antimicrobial screening. Bacterial strains were grown on Mueller Hinton II agar (MHA, Becton Dickinson, Franklin Lakes, NJ, USA) […] Mueller Hinton II broth (MHB, Becton Dickinson, Franklin Lakes, NJ, USA) and the Candida strain on Sabouraud dextrose agar (SDA, Becton Dickinson, Franklin Lakes, NJ, USA) plates. Media were prepared in MilliQ water, according to the manufacturer's instructions, and autoclaved at 121 °C for 15 min. […] The Candida strain was grown on SDA plates at 28 °C for 18-24 h and suspended into sterile 0.9% saline for the assay. Antimicrobial assays were performed by the broth microdilution method following the guidelines of the Clinical and Laboratory Standards Institute (CLSI) and European Committee on Antimicrobial Susceptibility Testing (EUCAST). […] The Candida suspension was prepared in sterile 0.9% saline solution, and the suspension was diluted in RPMI-1640 media (with L-glutamine, without NaHCO3 and supplemented with 2% glucose and 0.165 M MOPS, buffered to pH 7; Lonza, Basel, Switzerland) to yield a final inoculum of 2.5 × 10^3 CFU/mL in the assay. Assays were carried out in clear 96-well microtiter plates and initiated by dispensing an equal volume of microbial suspension and sample solution diluted into the assay medium. The plates were incubated for 24 h at 37 °C (for Candida, the incubation was at 28 °C for 48 h) with agitation. […] The antimicrobial activity of the samples was calculated from the absorbance values by comparing to untreated controls and expressed as the percentage inhibition of growth. Reference antibiotics were used as positive controls on every assay plate (see Figure 2 for details). […] MIC50 values were determined from the dose-response results by sigmoidal curve fitting with Origin software (OriginLab, Corp., Wellesley Hills, MA, USA).

[3] = Mammalian cell cytotoxicity, ATP assay (CellTiter-Glo); assay type: cell-based, human; conditions: human, Huh-7 cells, ATP assay, 24 h exposure, average of two dose-response experiments
Procedure: (§2) Huh-7 cells (originating from human hepatocellular carcinoma) were kindly provided by Prof. Ralf Bartenschlager (University of Heidelberg, Heidelberg, Germany). […] The cells were incubated at 37 °C in a humidified atmosphere with 5% CO2. The effect of the most promising compounds on the metabolic activity of Huh-7 hepatocytes was assessed by intracellular ATP quantitation (Promega’s CellTiter-Glo Cell Viability Assay, Madison, WI, USA). In brief, cells were seeded at 20,000 cells/well on white-walled 96-well microplates (ViewPlate, PerkinElmer Inc., Wellesley, MA, USA) and incubated at 37 °C, 5% CO2 and 95% humidity overnight and then exposed to the compounds for 24 h. Following the exposure, cells were washed with 100 µL PBS, and 50 µL of fresh assay media and 50 µL of the CellTiter-Glo reagent were added into the wells. After 2 min of shaking and 10 min incubation at rt, luminometric signal was measured using a Varioskan Flash plate reader (Thermo Fisher Scientific, Vantaa, Finland). […] The IC50 values were calculated by fitting the data into sigmoidal dose-response curves with the Origin software.

[4] = test system: Escherichia coli (ATCC 25922); experiment: Broth microdilution antimicrobial assay, Escherichia coli; assay type: cell-based
Procedure: as §1

[5] = test system: Staphylococcus aureus (ATCC 25923); experiment: Broth microdilution antimicrobial assay, Staphylococcus aureus; assay type: cell-based; conditions: for SI (selectivity index): S. aureus MIC50 vs Huh-7 cytotoxicity IC50; for MIC90 / inhibition at 50 µM / MIC50: Staphylococcus aureus; for inhibition at 50 µM / inhibition of growth, primary screen: n = 3, hit threshold >80%, 50 µM; for inhibition at 50 µM: read-out: inhibition of growth, primary screen; for MIC50: sigmoidal curve fitting
Procedure: as §1

Huh-7 cells = experiment: Mammalian cell cytotoxicity, ATP assay (CellTiter-Glo); assay type: cell-based, human
Procedure: as §2

[6] = 50 µM, 48 h, n = 3, hit threshold >80%
[7] = Enterococcus faecalis, ATCC29212, 24 h
[8] = 50 µM, 24 h, n = 3, hit threshold >80%
[9] = ATCC25923, S. aureus ATCC 25923, 24 h

For `Nc1nc(/C=C/CNC(=O)c2cc(Br)c(Br)[nH]2)c[nH]1` [Compound 2b, (E)-N-(3-(2-amino-1H-imidazol-4-yl)allyl)-4,5-dibromo-1H-pyrrole-2-carboxamide], the “inhibition of growth, primary screen” value [1, 6] was “inactive”, the inhibition at 50 µM [2, 7] was roughly 50% and the IC50 at 24 h [3] was greater than 100 µM. The “inhibition of growth, primary screen” value [4, 8] was “inactive”, the “SI (selectivity index)” value [5] was greater than 3.3 and the MIC90 ([5]; ATCC25923, 24 h) was 100 µM. For the same compound, the inhibition at 50 µM ([5]; ATCC25923, 24 h) was greater than 90% and the MIC50 [5, 9] was 30.6 µM (≈ 11.9 µg/mL).
With `Cl.Nc1nc(-c2cccc(NC(=O)c3cc4cc(OCc5ccccc5)ccc4[nH]3)c2)c[nH]1` [Compound 6h, 2-Amino-4-(3-(5-(benzyloxy)-1H-indole-2-carboxamido)phenyl)-1H-imidazol-3-ium chloride] the “inhibition of growth, primary screen” value [1, 6] was “no activity”, the “inhibition of growth, primary screen” value ([2]; 24 h) was “active” and the “SI (selectivity index)” value ([2]; E. faecalis MIC50 vs Huh-7 cytotoxicity IC50) was 2.7. For the same compound, the MIC90 [2, 7] was 12.5 µM, the MIC90 ([2]; Enterococcus faecalis, ATCC29212, E. faecalis ATCC 29212, 24 h) was 5.7 µg/mL and the MIC50 ([2]; Enterococcus faecalis, ATCC29212, E. faecalis ATCC 29212, 24 h, sigmoidal curve fitting) was 8 µM. The IC50 at 24 h [3] was 21.2 µM, the “inhibition of growth, primary screen” value [4, 8] was “active” and the “SI (selectivity index)” value ([4]; E. coli MIC50 vs Huh-7 cytotoxicity IC50) was 0.7. It also gave an MIC90 ([4]; Escherichia coli, ATCC25922, 24 h) of 50 µM, an MIC50 ([4]; Escherichia coli, ATCC25922, E. coli ATCC 25922, 24 h, sigmoidal curve fitting) of 30.4 µM and a melting point of 175 to 178 °C. The “inhibition of growth, primary screen” value ([5]; 24 h) was “active”, the “SI (selectivity index)” value [5] was 2.9 and the MIC90 ([5]; ATCC25923, 24 h) was 12.5 µM. The MIC90 [5, 9] was 5.7 µg/mL and the MIC50 [5, 9] was 7.3 µM.
Compound `C[C@@H]1[C@H](O)[C@@H](C)/C=C/C=C/C=C/C=C/C=C/C=C/C=C/[C@H](O[C@@H]2O[C@H](C)[C@@H](O)[C@H](N)[C@@H]2O)C[C@@H]2O[C@](O)(C[C@@H](O)C[C@@H](O)[C@H](O)CC[C@@H](O)C[C@@H](O)CC(=O)O[C@H]1C)C[C@H](O)[C@H]2C(=O)O` [amphotericin B, reference compound] has an MIC90 ([1]; Candida albicans, ATCC90028, 48 h) of 0.5 µM and an MIC90 ([1]; Candida albicans, ATCC90028, C. albicans ATCC 90028, 48 h) of 0.5 µg/mL.
With `Nc1nc(-c2cccc(NC(=O)c3c[nH]c4ccccc34)c2)c[nH]1` [Compound 6e] the “inhibition of growth, primary screen” value [1, 6] was “inactive”, the “inhibition of growth, primary screen” value ([2]; 24 h) was “inactive” and the “inhibition of growth, primary screen” value [4, 8] was “inactive”. The “inhibition of growth, primary screen” value ([5]; 24 h) was “inactive”.
In the case of `Nc1nc(/C=C/CNC(=O)c2ccc[nH]2)c[nH]1` [Compound 2a, (E)-N-(3-(2-amino-1H-imidazol-4-yl)allyl)-1H-pyrrole-2-carboxamide], the inhibition at 50 µM ([1]; Candida albicans, ATCC90028, 50 µM, 48 h, n = 3, hit threshold >80%, read-out: inhibition of growth, primary screen) was less than 80%, the inhibition at 50 µM [2, 7] was less than 80% and the inhibition at 50 µM ([4]; Escherichia coli, ATCC25922, 50 µM, 24 h, n = 3, hit threshold >80%, read-out: inhibition of growth, primary screen) was less than 80%. For the same compound, the inhibition at 50 µM ([5]; ATCC25923, 24 h) was less than 80%.
Compound “Polymyxin-B sulfate [reference compound]” has an average cytotoxicity (Huh-7 cells; 15,000 IU/mL, positive control, 24 h) of 88%.
In the case of `CC(C)(C)OC(=O)n1cc(-c2cccc(NC(=O)c3cc4cc(Cl)ccc4[nH]3)c2)nc1N` [Compound 5i, tert-Butyl 2-amino-4-(3-(5-chloro-1H-indole-2-carboxamido)phenyl)-1H-imidazole-1-carboxylate], the “cytotoxicity at highest tested concentration” value (Huh-7 cells; 100 µM) was “non-cytotoxicity”, the IC50 at 24 h [3] was greater than 100 µM and the melting point was 188 to 190 °C. The “SI (selectivity index)” value [5] was greater than 8.6, the MIC90 ([5]; ATCC25923, 24 h) was 75 µM and the MIC50 [5, 9] was 11.7 µM (≈ 5.29 µg/mL).
